This is an account of results in PMC10590419, “Structural and mechanistic insights into the inhibition of respiratory syncytial virus polymerase by a non-nucleoside inhibitor” (Communications Biology, 2023).

Several values for one entry are separate records, joined by “and”; a condition that tells them apart may be missing. Equal values may be shown once.

Assay [1] concerns the target T1, RSV L+P complex (Human respiratory syncytial virus A, UniProt P28887). The format is biochemical.
In the next assay the target is RSV MTase-CTD protein (Human respiratory syncytial virus A, UniProt P28887). Kind of assay: Methyltransferase filter-binding assay. Particulars: three technical replicates. Format: biochemical.
Chain of RSV MTase-CTD protein (P28887 1755-2165): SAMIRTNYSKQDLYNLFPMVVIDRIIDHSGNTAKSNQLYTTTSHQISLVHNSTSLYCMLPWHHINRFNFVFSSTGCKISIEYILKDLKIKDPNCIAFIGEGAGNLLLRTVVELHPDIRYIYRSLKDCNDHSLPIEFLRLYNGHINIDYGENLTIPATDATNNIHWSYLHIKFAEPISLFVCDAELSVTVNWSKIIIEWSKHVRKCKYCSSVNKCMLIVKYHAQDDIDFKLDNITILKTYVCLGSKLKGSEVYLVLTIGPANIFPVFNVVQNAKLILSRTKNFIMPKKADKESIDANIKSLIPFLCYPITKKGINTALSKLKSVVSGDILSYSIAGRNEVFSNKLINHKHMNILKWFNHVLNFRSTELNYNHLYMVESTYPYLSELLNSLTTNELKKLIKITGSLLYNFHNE
In assay [2] the target is T1, RSV L+P complex. The experiment in a line: Surface plasmon resonance assay. Format: binding, Human RSV (strain A2). As to conditions: SPR, top concentration 1 mM. In general terms: In SPR one partner is held on a chip, and binding of the other changes the refractive index at the surface.

T1 sequence (P03421 whole entry): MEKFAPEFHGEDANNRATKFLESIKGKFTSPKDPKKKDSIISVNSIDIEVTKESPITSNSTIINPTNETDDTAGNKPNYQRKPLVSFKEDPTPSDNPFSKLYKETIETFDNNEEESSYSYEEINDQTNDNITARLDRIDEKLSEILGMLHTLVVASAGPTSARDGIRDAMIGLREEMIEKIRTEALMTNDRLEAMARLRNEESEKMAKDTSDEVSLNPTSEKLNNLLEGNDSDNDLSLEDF
T1 sequence (P28887 whole entry): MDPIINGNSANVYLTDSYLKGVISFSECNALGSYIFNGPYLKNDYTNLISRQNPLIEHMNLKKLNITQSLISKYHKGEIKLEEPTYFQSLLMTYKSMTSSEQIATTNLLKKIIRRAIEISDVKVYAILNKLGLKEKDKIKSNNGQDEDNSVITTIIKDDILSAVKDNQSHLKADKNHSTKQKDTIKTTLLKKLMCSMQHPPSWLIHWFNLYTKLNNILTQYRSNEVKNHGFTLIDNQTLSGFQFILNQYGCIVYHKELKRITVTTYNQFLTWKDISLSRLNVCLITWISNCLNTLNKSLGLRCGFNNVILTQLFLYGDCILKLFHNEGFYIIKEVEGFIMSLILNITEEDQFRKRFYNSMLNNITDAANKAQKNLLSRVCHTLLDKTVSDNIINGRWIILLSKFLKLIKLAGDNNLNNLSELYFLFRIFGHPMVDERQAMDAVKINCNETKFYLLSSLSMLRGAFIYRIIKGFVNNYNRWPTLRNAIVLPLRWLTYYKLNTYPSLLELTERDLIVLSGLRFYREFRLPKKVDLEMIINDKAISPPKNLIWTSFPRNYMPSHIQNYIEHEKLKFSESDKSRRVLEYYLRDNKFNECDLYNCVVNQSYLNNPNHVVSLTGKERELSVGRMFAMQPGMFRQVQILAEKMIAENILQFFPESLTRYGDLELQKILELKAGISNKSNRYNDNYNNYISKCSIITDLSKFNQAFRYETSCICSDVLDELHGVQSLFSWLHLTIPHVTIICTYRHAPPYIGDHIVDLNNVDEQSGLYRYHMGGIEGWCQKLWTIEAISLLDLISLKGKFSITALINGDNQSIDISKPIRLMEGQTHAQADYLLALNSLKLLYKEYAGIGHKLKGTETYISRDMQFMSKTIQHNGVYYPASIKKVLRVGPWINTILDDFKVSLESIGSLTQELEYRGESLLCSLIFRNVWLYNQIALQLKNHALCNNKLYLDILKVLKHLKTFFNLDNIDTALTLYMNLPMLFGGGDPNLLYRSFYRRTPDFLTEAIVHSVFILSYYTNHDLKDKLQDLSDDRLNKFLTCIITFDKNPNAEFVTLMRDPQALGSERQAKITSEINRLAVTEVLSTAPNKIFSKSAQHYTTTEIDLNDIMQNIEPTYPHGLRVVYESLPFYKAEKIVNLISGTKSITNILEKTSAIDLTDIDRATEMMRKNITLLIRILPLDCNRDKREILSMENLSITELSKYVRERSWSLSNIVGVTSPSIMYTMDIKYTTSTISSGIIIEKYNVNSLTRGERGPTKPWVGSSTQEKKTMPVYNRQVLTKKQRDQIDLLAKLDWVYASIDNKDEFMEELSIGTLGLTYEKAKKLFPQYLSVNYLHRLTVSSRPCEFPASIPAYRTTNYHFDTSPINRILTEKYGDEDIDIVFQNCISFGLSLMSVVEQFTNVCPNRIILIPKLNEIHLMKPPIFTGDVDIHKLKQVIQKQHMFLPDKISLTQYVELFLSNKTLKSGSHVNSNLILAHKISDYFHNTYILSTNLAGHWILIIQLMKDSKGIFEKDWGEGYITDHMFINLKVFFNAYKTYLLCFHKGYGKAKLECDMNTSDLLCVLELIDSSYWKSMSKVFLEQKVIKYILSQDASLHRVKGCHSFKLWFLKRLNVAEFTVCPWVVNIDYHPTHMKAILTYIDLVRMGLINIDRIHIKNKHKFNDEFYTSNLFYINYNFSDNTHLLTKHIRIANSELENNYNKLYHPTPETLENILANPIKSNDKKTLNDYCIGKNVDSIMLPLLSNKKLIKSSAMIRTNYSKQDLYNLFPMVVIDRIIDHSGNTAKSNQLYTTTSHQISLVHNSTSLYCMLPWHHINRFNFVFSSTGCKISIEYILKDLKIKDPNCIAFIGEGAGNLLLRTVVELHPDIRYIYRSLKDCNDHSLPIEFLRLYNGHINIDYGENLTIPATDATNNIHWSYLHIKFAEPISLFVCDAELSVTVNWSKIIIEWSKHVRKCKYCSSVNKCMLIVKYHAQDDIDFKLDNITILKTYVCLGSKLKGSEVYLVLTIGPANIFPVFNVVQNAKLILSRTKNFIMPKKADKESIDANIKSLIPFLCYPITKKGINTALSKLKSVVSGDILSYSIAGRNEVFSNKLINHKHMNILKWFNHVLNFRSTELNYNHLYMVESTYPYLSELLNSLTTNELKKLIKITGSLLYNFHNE

Turning to `O=C(NC1CC1)c1cc2c(s1)-c1ccccc1N(C(=O)c1ccc(NC(=O)c3cccnc3N3CCC4(CC3)COC4)cc1)CC2` [AZ-27, reference compound], on RSV L+P complex [1], the “MTase activity, RNA+compound+RSV L+P, CPM” value is 10786 CPM and 11483 CPM and 10556 CPM and 15234 CPM and 15171 CPM and 17548 CPM. The “MTase activity, RNA+compound+RSV MTase-CTD, CPM” value is 28343 CPM and 26589 CPM and 27119 CPM on RSV MTase-CTD protein (50 uM); 32944 CPM and 32511 CPM and 35155 CPM on RSV MTase-CTD protein (200 uM).

With `Nc1nc2c(ncn2[C@@H]2O[C@H](COP(=O)(O)OP(=O)(O)O)[C@@H](O)[C@H]2O)c(=O)[nH]1` [GDP, guanosine diphosphate], the “binding to purified RSV L+P (in words)” value at RSV L+P complex [2] is given as “did not bind”.
